How the values were obtained:
[1] = tested on: recombinant soluble human CD73; assay: Radiometric CD73 inhibition assay, recombinant soluble human CD73; assay type: biochemical; details: human vs rat CD73 Ki, Table 5
Protocol: The cDNA for the soluble human CD73 (Genbank accession no. NM_002526) was obtained from Prof. Dr. Norbert Sträter (University of Leipzig, Germany) (3). […] Sf9 insect cells were grown in Insect-[…] media (#: BE12-[…], Lonza, Switzerland) with 10 mg/l gentamicin and split at a ratio of 1:3 every fourth day. For transfection, cells were seeded into cell culture flasks (25 cm^2) at 60-70% confluence. 100 μl of cell medium and 1 μl of the vector DNA (1000 ng/μ1) were mixed with 2.5 μl of baculovirus genomic ProEasyTM vector DNA (AB vector, CA, USA) and combined with premixed 100 μl of cell medium and 8 μl of CellfectinTM II Reagent (Thermo Fisher Scientific, MA, USA). […] The cells were incubated for 30 min at rt, and for further 4 days at 27° C. Cells from the transfection procedure were detached from the bottom of the flasks and centrifuged for 5 min at 2000 g. 1.5 ml of the supernatant (viral stock) was added to 75 cm^2 cell culture flasks containing Sf9 cells (60-70% confluence), and the cells were incubated for four days at 27° C. Then 1.5 ml of the supernatant were taken and added to uninfected Sf9 cells in a 75 cm^2 flask. This was repeated five more times, using more cells and larger flasks after the third round of infections (150 cm^2 to which 3.0 ml of supernatant were added). The stock P8 was finally used for infection of the cells. For protein expression, 3 ml of the virus solution were used to infect 150 ml of cell media containing 2×10^6 cells/ml in a 500 ml Erlenmeyer flask, and they were incubated for 4 days at 27° C. with shaking (150 rpm). Then, cell suspensions were transferred to 50 ml falcon tubes and centrifuged at 15 min at 5000 g at 4° C. The supernatants were subjected to ultrafiltration using Amicon® Ultra-15, 10 kDa cut-off (Merck Millipore, MA, USA) at 5000 g for 15-30 min at 4° C. The concentrated protein was purified with HisPurTM Ni^2+-NTA spin columns (#: 88226, Thermo Fisher Scientific, MA, USA). The elution of the columns was performed as recommended in the instruction manual with adjusting the incubation time for protein binding to 1 h at 4° C. with an end-over-end mixer and an additional incubation step of 5 min with the elution buffer before eluting. Eluates were pooled and dialyzed (Membra-Cer, 14 kDa cut-off, 250 mm×44 mm×0.02 mm; Carl Roth, Germany) at 4° C. in 25 mM Tris, pH 7.4, with a volume adjusted to 40 times the volume of the elution fraction. […] The enzyme was aliquoted and stored at -80° C. until use.

human P2Y6 receptor = target: T1, human P2Y6 receptor (Homo sapiens, UniProt Q15077); assay: Human P2Y6 receptor assay, calcium mobilization in 1321N1 astrocytoma cells; assay type: cell-based; details: 1321N1 cells expressing human P2Y6, read-out: hP2Y6 EC50 ± SEM
T1 construct: expressed in transfected cells; host or cells: 1321N1 human astrocytoma cells
Protocol: Calcium mobilization induced by the nucleotide derivatives was measured in a human astrocytoma cell line (1321N1) expressing the human P2Y6 receptor, as previously described (33).

human P2Y14 receptor = target: T2, human P2Y14 receptor (Homo sapiens, UniProt Q15391); assay: Human P2Y14 receptor assay, inhibition of binding of a fluorescent antagonist, flow cytometry in CHO cells; details: CHO cells expressing human P2Y14, read-out: hP2Y14 IC50 ± SEM
T2 construct: expressed in transfected cells; host or cells: CHO cells
T2 sequence (Q15391 1-338): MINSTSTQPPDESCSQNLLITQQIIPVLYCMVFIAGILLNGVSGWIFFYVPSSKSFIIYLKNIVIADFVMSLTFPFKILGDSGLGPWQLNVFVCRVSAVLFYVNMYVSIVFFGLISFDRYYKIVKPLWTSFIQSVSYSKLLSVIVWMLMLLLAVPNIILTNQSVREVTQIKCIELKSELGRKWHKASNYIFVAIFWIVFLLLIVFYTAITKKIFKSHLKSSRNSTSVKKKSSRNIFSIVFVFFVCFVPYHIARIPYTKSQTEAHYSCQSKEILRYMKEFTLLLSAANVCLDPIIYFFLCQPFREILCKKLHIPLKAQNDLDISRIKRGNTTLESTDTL
Protocol: Inhibition of binding of a high affinity fluorescent antagonist was measured using flow cytometry in a CHO cell line expressing the human P2Y14 receptor, as previously described (34).

[2] = target: T3, CD73 in human tonsillary tissue (Homo sapiens, UniProt P21589); assay: Human tonsillar CD73-mediated AMPase activity in tonsil cryosections; assay type: biochemical; details: 1, 10, and 100 nM; mean pixel intensity, FIG. 10
T3 construct: Palatine tonsils were obtained from adult patients with chronic tonsillitis; from tissue; host or cells: human palatine tonsil cryosections
T3 sequence (P21589 27-549): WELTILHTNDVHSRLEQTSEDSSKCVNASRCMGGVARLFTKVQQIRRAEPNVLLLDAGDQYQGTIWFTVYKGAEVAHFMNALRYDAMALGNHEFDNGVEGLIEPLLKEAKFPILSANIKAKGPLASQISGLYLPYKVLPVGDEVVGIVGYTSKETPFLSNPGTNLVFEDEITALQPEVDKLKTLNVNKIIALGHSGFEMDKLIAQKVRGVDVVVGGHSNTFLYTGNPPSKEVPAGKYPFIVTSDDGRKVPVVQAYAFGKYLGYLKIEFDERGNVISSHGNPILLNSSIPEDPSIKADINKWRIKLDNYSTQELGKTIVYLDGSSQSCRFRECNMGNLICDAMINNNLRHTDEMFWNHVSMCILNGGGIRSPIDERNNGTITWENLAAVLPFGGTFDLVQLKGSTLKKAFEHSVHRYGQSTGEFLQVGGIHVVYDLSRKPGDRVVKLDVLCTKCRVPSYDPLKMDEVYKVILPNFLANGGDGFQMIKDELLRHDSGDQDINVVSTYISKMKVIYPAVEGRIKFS
Protocol: Palatine tonsils were obtained from adult patients with chronic tonsillitis undergoing routine tonsillectory. The tonsils were washed with phisiological salt solution, embedded in the cyro-mold with Tissue-Tek O.C.T. compound (Sakura Finetek Europe B.V., the Nethelands), cut using a cryostat and stored at −80° C. Tonsil cryoselctions were preincubated for 30 min in Trizma maleate sucrose buffer supplemented with the alkaline phosphatase inhibitor levamisole and different concentrations of compound 9h. The enzymatic reaction was then performed for 45 min at 37° C. in a final volume of […] of TMSB-buffered substrate solution containing Pb (NO3)2, CaCl2, and tested CD73 inhibitor at the same concentration. The lead orthophosphate precipitated in the course of nucleotidase activity was visualized as a brown deposit by incubating sections in (NH3)2S for 30s, followed by three washed in Trizma-maleate buffer for 5 min each. Slides were mounted with Aquatex medium (Merck, Germany). Multiple images of adjacent tissue areas were captured using a slide scanner and further stitched to a larger overview. The images of control and treated tissues were captured at identical exposure times and other settings and further acquired in parallel. Nucleotidase activities were quantified as mean pixel intensities after grayscale conversion.

[3] = target: T4, recombinant soluble rat CD73 (Rattus norvegicus, UniProt P21588); assay: Radiometric rat ecto-5′-nucleotidase (CD73) assay with [3H]AMP
T4 sequence (P21588 29-551 limits assumed): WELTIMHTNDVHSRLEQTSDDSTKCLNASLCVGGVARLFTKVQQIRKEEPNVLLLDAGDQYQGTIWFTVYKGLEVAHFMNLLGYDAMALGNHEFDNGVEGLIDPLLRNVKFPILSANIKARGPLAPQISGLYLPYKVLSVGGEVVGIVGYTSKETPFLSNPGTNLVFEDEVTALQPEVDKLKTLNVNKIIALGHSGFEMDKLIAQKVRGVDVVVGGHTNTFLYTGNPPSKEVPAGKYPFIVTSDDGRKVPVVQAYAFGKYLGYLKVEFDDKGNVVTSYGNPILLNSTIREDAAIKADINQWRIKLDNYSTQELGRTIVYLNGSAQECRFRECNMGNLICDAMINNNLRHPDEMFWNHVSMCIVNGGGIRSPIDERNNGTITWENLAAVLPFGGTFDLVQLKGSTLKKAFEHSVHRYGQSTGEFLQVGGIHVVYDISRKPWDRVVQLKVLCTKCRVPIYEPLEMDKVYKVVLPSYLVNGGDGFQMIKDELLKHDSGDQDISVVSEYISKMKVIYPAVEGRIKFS
Protocol: After the enzymatic reaction, the substrate was separated from its product [2,8-^3H]adenosine by precipitation with lanthanum chloride followed by filtration through glass fiber filters (34). […] Ki values were calculated from the obtained IC50 values using the Cheng-Prusoff equation (6,7).
The assay was performed as previously described (41) using recombinant rat CD73 expressed in Sf9 insect cells (33). […] The mixture was incubated for 25 min at 37° C. The reaction was stopped by adding 500 μL of ice-cooled precipitation buffer containing 100 mM aqueous lanthanum chloride and 100 mM aqueous sodium acetate solution (pH 4.0). After 30 min, the precipitation was filtered through GF/B glass fiber filters (M-48, Brandel, Gaithersburg, Md., USA). After washing three times, 4 mL of the scintillation cocktail ULTIMA Gold XR was added and then quantified by scintillation counting (TRICARB 2900 TR, Packard/PerkinElmer). Three separate inhibition assays were performed in triplicate, concentration-response curves were fitted, and Ki values were calculated.
The assay was performed essentially as previously described.^D Stock solutions (10 mM) of the compounds were prepared in demineralized water and further dilutions were performed in assay reaction buffer (25 mM Tris, 140 mM sodium chloride, 25 mM sodium dihydrogen phosphate, pH 7.4). 10 μL of the inhibitor solution were added to 70 μL of assay reaction buffer. […] The enzymatic reaction was performed for 25 min at 37° C. in a shaking water bath. […] After the precipitation was completed (after at least 30 min on ice), the mixture was separated by filtration through GF/B glass fiber filters using a cell harvester (M-48, Brandel, Gaitherburg, Md., USA). After washing each reaction vial three times with 400 μl of cold (4° C.) demineralized water, 5 ml of the scintillation cocktail (ULTIMA Gold XR, PerkinElmer, MA, USA) was added and radioactivity was measured by scintillation counting (TRICARB 2900 TR, Packard/PerkinElmer; counting efficacy: 49-52%). Two controls were included and measured as duplicates. One reaction was performed without the inhibitor resulting in 100% enzyme activity (positive control) and one was incubated without the inhibitor and the enzyme and served as background control. The resulting data were subtracted from the background and were normalized with to the positive control. The results were plotted, and concentration-inhibition curves were fitted with GraphPad Prism 5 (GraphPad Software, La Jolla, USA).
After 30 min, the precipitation was filtered through GF/B glass fiber filters (M-48, Brandel, Gaithersburg, Md., USA). After washing three times, 4 mL of the scintillation cocktail ULTIMA Gold XR was added and then quantified by scintillation counting (TRICARB 2900 TR, Packard/PerkinElmer). Three separate inhibition assays were performed in triplicate, concentration-response curves were fitted, and K, values were calculated.

[4] = target: T5, membrane-bound CD73 (membrane preparation of MDA-MB-231 cells) (Homo sapiens, UniProt P21589); assay: Radiometric CD73 inhibition assay, membrane preparations of MDA-MB-231 cells
T5 sequence (P21589 27-549): T3 sequence (P21589 27-549)
Protocol: After the enzymatic reaction, the substrate was separated from its product [2,8-^3H]adenosine by precipitation with lanthanum chloride followed by filtration through glass fiber filters (34). For compounds that inhibited CD73 activity by more than 50% at an initial screening concentration of 1 μM, full concentration-response curves were determined in at least three separate experiments performed in duplicates using 10 different concentrations of inhibitor. Ki values were calculated from the obtained IC50 values using the Cheng-Prusoff equation (6,7). […]
The assay was performed essentially as previously described.^D Stock solutions (10 mM) of the compounds were prepared in demineralized water and further dilutions were performed in assay reaction buffer (25 mM Tris, 140 mM sodium chloride, 25 mM sodium dihydrogen phosphate, pH 7.4). […] After washing each reaction vial three times with 400 μl of cold (4° C.) demineralized water, 5 ml of the scintillation cocktail (ULTIMA Gold XR, PerkinElmer, MA, USA) was added and radioactivity was measured by scintillation counting (TRICARB 2900 TR, Packard/PerkinElmer; counting efficacy: 49-52%). Two controls were included and measured as duplicates. […]

T1 sequence (Q15077 whole entry): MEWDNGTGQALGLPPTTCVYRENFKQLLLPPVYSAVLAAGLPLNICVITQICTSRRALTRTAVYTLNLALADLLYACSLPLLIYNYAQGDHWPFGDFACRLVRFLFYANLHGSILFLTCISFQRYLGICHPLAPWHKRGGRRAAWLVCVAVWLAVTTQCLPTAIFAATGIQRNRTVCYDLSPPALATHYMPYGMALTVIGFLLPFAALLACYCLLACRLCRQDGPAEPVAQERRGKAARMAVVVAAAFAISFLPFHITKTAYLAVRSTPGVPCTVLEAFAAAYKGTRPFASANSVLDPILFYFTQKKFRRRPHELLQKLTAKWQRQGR

`Cn1c(=O)n([C@@H]2O[C@H](COP(=O)(O)CP(=O)(O)O)[C@@H](O)[C@H]2O)cc/c1=N/OCc1ccccc1` [Compound 9h, N^4-[O-(4-Benzyloxy)]-3-methyl-cytidine-5′-O-[(phosphonomethyl)phosphonic acid]] was tested, and the “potency at human CD73 as compared to the rat enzyme” value [1] was “somewhat less potent”, the EC50 (human P2Y6 receptor) was > 3000 µM and the IC50 (human P2Y14 receptor) was > 3000 µM. For the same compound, the “inhibition of the catalytic activity of CD73 in human tonsillary tissue” value [2] was “inhibited the catalytic activity of CD73 in a concentration-dependent manner”, the Ki [3] was 0.00367 µM and the Ki [4] was 0.00796 µM.

— patent publication US20210169911A1, “PURINE AND PYRIMIDINE NUCLEOTIDES AS ECTO-5'-NUCLEOTIDASE INHIBITORS” (The United States of America,as represented by the …, priority 2018, published 2021)
